Laboratory results as given in patent US7887852B2, “Soft gel capsules containing polymethoxylated flavones and palm oil tocotrienols” (Soft Gel Technologies, Inc., priority 2005, dated 2011).

Experiment: Randomized crossover pharmacokinetics study of two Sytrinol formulations, single oral dose, serum tangeretin and nobiletin by LC/MS/MS
Parameters: species or system healthy human subjects
Conditions: human, in vivo
Experimental: The following experiments were undertaken to determine whether citrus polymethoxylated flavones (PMFs) can be detected and quantitated in serum obtained from healthy adults after a single-dose administration of Sytrinol™ capsules (containing 1053 mg of total PMFs) and to compare oral bioavailabilities of two Sytrinol™ formulations in healthy human subjects. This study was conducted as a randomized crossover trial in ten healthy adults, five men and five women, age 23±3 years. […]
Peripheral blood was taken by venipuncture at time 0 (baseline) and times 0.25, 0.5, 1, 2, 4, 6, 8, 24 and 48 hours after ingestion of Sytrinol™ capsules. […] Tangeretin and nobiletin were detected in serum samples and quantitated by LC/MS/MS.
The study was designed to determine whether PMFs can be detected and quantitated in serum obtained from healthy adults after a single dose administration of Sytrinol™ capsules (containing 1053 mg of total PMFs) and to compare oral bioavailabilities of two Sytrinol™ formulations in healthy human subjects. […]
A method of serum extraction and LC/MS/MS analysis of PMF was developed. A Varian 1200 L LC/MS/MS system equipped with ESI and APCI sources was used to identify and quantify tangeretin and nobiletin. […]

Q: With `COc1ccc(-c2cc(=O)c3c(OC)c(OC)c(OC)c(OC)c3o2)cc1OC` [nobiletin] as the compound, how does the “AUC0-48h of nobiletin compared with tangeretin” value read?
A: The value was “significantly higher”.
